Entries after “also recorded” stand apart in the source; their conditions may differ.
Tests used:
[1] = molecular target: T1, purified human PP2A A-C dimer (Homo sapiens, UniProt P67775); assay: Free sulfhydryl groups in purified PP2A (Ellman's assay); assay type: biochemical; conditions: 15 min at 37° C.
T1 construct: purified PP2A A-C dimer purified from human red blood cells; purchased Upstate 14-111 (lot #28002); host or cells: human red blood cells (native purification)
Source text: Inactivating reversible oxidation of protein phosphatases involves the modification of a critical cysteine residue within the catalytic domain, ultimately leading to the formation of either intramolecular disulphide or sulphenyl-amide bonds. […] Ellman's reagent (5,5′-Dithio-bis(2-nitrobenzoic acid), DTNB) rapidly forms a disulphide bond with free sulfhydryl groups with the release of chromogenic thiolate ions. […] The quantity of free sulfhydryl groups present within the phosphatase was then determined by the addition of Ellman's reagent and subsequent measurement of absorbance at 412 nm (FIG. 5C).
The change in free sulfhydryl groups in purified PP2A following various treatments was determined using Ellman's Reagent. To 0.01 U of PP2A was added to 37.5 μl of dilution buffer (30 mM Tris-HCl, 3 mM EDTA, pH 8.2), 12.5 μl DTNB reagent (Ellman's reagent) and 200 μl of methanol. Samples were incubated for 5 min at RT, and then extinction measured in duplicate for each at 412 nm.

human TAU441 = conditions: TMHT mice
Method: This was done every Monday, Wednesday and Friday, and the water was weighed on exchange to measure consumption.
After blood sampling transgenic mice were intracardially perfused with 0.9% sodium chloride. Brains were rapidly removed, and the right half was immersion fixed for 24 hours in freshly prepared 4% Paraformaldehyde and embedded in paraffin for histological investigations. The left hemisphere was frozen on dry ice and stored at −80° C. for possible later biochemical analysis.
In initially nine (9) brain hemispheres (≧3 per Tg animal group) histological evaluations were performed to qualitative and quantitative evaluate TAU pathology.
Fifteen (15) coronal consecutive sections (Leica SM 2000R) were cut (5 μm thick) at each of 5 different brain layers between Bregma −1.82 and −1.34 mm, which were chosen according to the morphology atlas “The Mouse Brain” from Paxinos and Franklin (2 ^d edition), for Gallyas staining and for determination TAU pathology with specific antibodies (AT180 and HT7). Tissues of all transgenic animals investigated were handled in exactly the same way to avoid bias due to variation of this procedure. Remaining brain hemispheres or tissue not used are saved and stored until the sponsor has decided to how to proceed or until end of the study.
TAU depositions were determined using the monoclonal TAU-antibodies AT180 and HT7 (Pierce Endogen®).
Five (5) μm thick coronal paraffin sections from each of the five different layers were stained with the above described monoclonal mouse anti-human TAU-antibodies (AT180—1:100; HT7—1:1000) and visualized using a secondary anti-mouse Cy3 (1:500, Jackson Laboratories®). The detailed staining protocols are set out below:
AT180 incubation protocol for the determination of human PHF-TAU depositions • 1.) Deparaffinize and hydrate tissue sections through Tissue Clear (Sakura®) and graded alcohol (Merck®) series. • 2.) Wash for 2 minutes in Aqua bidest (Fresenius-Kabi®) • 3.) Place tissue sections for antigen unmasking in 10% citrate buffer (Labvision®) for 15 minutes at 95° C. in a steamer and to cool down for 15 minutes at room temperature. • 4.) Wash sections for 2×5 minutes in PBS. • 5.) Block endogenous peroxidase with 1% hydrogen peroxide (Linaris®) in methanol (Merck®) for 10 minutes at room temperature. • 6.) Wash sections for 2×5 minutes in PBS. • 7.) Block unspecific bindings with MOM-Blocking Reagent (Vector®) for 60 minutes at room temperature in a damp chamber. • 8.) Wash sections for 2×5 minutes in PBS. • 9.) Block unspecific bindings with MOM-Diluent (Vector®) for 5 minutes at room temperature. • 10.) Incubate with AT180 (Pierce Endogen®; 1:100 in MOM-Diluent) for 60 minutes at room temperature in a damp chamber. • 11.) Wash sections for 3×5 minutes in PBS. • 12.) Block unspecific bindings with 10% Non-Immune Goat-Normal Serum (Dako®) for 10 minutes at room temperature in a damp chamber. • 13.) Wash sections for 2×5 minutes in PBS. • 14.) Incubate with Cy 3 Goat Anti-Mouse (Jackson®; 1:500 in MOM-Diluent) for 60 minutes at room temperature in a damp chamber. • 15.) Wash sections for 5 minutes in PBS. • 16.) Wash sections for 5 minutes in Aqua bidest. • 17.) Cover sections with Moviol and coverslips.

PP2A = molecular target: T2, PP2A (Homo sapiens, UniProt P67775); assay: PP2A immunoprecipitation from treated PC3 cells and phosphatase assay; assay type: cell-based; conditions: PC3 cells treated 1 hour; sodium selenate 500 μM, endothall A 100 μM
T2 construct: the phosphatase activity of the general pool of intracellular PP2A; endogenous in cells; host or cells: PC3 prostate carcinoma cells
Method: Free phosphate was removed by passing cell lysates through desalting columns, and measured phosphatase activity using a phosphor-serine peptide and malachite green.
1×10^6 PC3 cells were plated in 60 mm plates and allowed attach for 8 h, then serum starved over night. Following various treatments as indicated, the media was aspirated and cells washed once with TBS. Cells were lysed in 0.3 ml of lysis buffer (20 mM Tris-HCl, pH 7.0, 1% Igepal-CA, 2 mM EDTA, 2 mM EGTA, 1× Complete Protease Inhibitor Cocktail) and phosphates removed by passing the lysate through a 2 ml Zeba Desalt Spin Column (Pierce #89890). Protein concentration of the desalted lysate was determined by the BCA assay as previously described. 100-150 μg of total protein was immunoprecipitated with 4 μg of anti-PP2A monoclonal antibody and 30 μl of Protein A-sepharose slurry at 4° C. for 2 h. Samples were then pelleted at 14,000 rpm for 1 min, washed three times in excess TBS and once with pNPP assay buffer. After the final spin all of the supernatant was carefully removed and 500 μM of phosphor-threonine peptide in a final volume of 80 μl added to the beads. Samples were incubated at 30° C. for 10 min with agitation, and the reaction terminated by the addition of malachite green solution. Absorbance was read at 590 nm for each sample in duplicate.

PP2A A-C dimer = molecular target: T3, PP2A A-C dimer (Homo sapiens, UniProt P67775); assay: Phosphopeptide / malachite green assay with purified PP2A; assay type: biochemical
T3 construct: purified PP2A A-C dimer purified from human red blood cells; purchased Upstate 14-111 (lot #28002); host or cells: human red blood cells (native purification)
Method: The amount of inorganic phosphate released by enzymatic activity was determined by the addition of malachite green, and absorbance read at 590 nm. Malachite green forms a stable green complex in the presence of molybdate and orthophosphate, allowing the concentration of inorganic phosphate present to be measured. Data is presented as mean absorbance at 590 nm from at least three independent experiments, ±SEM.
(§1) 1 mg of synthetic phosphopeptides K-R-pT-I-R-R (Upstate #12-219) and R-R-A-pS-V-A (Upstate #12-220) were dissolved in 1.10-1.285 ml of dH2O to prepare a 1 mM solution, then aliquoted and stored at −20° C. until use. 0.01-0.05 U of purified PP2A A-C dimer purified from human red blood cells, or 0.05 U of rabbit PP1 purified from skeletal muscle was mixed with 500 μM of phosphopeptide and incubated in the presence of various treatments as indicated at 37° C. on a heating block for 15 min. Each reaction was made up to a total volume of 25 μl with pNPP buffer (50 mM Tris-HCl, pH 7.0, 100 μM CaCl2). The enzyme reaction was terminated by adding 100 μl of malachite green solution (0.034% malachite green in 10 mM ammonium molybdate, 1 N HCl, 3.4% ethanol, 0.01% Tween-20). Malachite green forms a stable green complex in the presence of molybdate and orthophosphate, allowing the amount of inorganic phosphate present to be measured. Absorbance was read in duplicate for each sample at 590 nm.

[2] = molecular target: phosphatase activity associated with immunoprecipitated Akt protein (PP2A) (Homo sapiens, UniProt P67775); conditions: PC3 cells, 500 μM, 1 h
Method: 2×10^6 PC3 cells were plated in 10 cm plates, allowed to attach for 8 hours, and then serum starved over night. […] 500-600 μg of total protein was then immunoprecipitated with anti-Akt (1:100) monoclonal antibody and 30 μl of Protein A slurry, and after washing, checked for free phosphate contamination by incubation of 25 μl of final wash buffer with Malachite Green. Immunoprecipitates were assayed for phosphatase activity by incubation with 500 μM synthetic phospho-threonine peptide for 10 min at 30° C. with agitation. Free phosphate was detected by the addition of malachite green solution, and absorbance was read at 590 nm, for each sample in duplicate.

rabbit PP1 = conditions: 0.05 U PP1, 500 μM phospho-threonine peptide, 15 min at 37° C., 50 μM sodium selenate
Method: as §1

T1 sequence (P67775 whole entry): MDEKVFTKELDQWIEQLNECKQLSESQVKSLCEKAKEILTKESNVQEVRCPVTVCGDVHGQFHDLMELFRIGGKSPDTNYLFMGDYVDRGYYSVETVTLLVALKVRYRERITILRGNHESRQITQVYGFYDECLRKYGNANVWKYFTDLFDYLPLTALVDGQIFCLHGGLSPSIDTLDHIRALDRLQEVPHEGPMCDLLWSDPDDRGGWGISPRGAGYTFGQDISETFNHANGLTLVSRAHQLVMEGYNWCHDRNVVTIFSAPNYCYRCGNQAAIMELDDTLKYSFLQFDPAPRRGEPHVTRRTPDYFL
T1 sequence (P30153 2-589 partner limits assumed): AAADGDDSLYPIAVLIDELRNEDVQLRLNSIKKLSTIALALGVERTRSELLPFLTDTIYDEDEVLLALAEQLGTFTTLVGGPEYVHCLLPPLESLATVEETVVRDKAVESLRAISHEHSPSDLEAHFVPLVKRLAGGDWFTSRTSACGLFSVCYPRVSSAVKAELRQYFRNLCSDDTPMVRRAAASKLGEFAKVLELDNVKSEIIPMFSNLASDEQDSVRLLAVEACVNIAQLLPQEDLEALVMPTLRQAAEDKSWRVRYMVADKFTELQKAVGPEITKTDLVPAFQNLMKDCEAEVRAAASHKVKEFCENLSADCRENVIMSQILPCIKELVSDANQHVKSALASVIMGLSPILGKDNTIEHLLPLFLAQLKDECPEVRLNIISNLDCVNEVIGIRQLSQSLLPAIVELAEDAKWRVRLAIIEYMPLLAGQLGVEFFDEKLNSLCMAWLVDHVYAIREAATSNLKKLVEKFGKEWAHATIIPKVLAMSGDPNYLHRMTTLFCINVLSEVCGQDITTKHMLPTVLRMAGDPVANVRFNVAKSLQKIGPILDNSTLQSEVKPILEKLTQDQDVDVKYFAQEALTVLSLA
T3 sequence (P67775 whole entry): as the sequence (P67775 whole entry) above
T3 sequence (P30153 2-589 partner limits assumed): as the sequence (P30153 2-589 partner limits assumed) above
T2 sequence (P67775 whole entry): as the sequence (P67775 whole entry) above
T2 sequence (P30153 2-589 partner limits assumed): as the sequence (P30153 2-589 partner limits assumed) above
Chain of phosphatase activity associated with immunoprecipitated Akt protein (PP2A) (P67775 whole entry): as the sequence (P67775 whole entry) above
Chain of phosphatase activity associated with immunoprecipitated Akt protein (PP2A) (P30153 2-589, further chain): as the sequence (P30153 2-589 partner limits assumed) above

**Q.** Which results are given for `O=[Se](=O)(O)O` [sodium selenate]?
**A.** number of free sulfhydryl groups in PP2A ([1]; 0.01 U PP2A, 10 mM of each agent): has no effect; hydrogen peroxide mediated modification of PP2A sulfhydryl groups in the presence of sodium selenate ([1]; sodium selenate 10 mM and hydrogen peroxide 10 mM): did not protect PP2A from hydrogen peroxide mediated modification of sulfhydryl groups; also recorded: significantly more efficient in the presence of sodium selenate; percentage of relative TAU area in the Amygdala (AT180), versus untreated baseline (human TAU441): not versus untreated baseline group; percentage of relative HT7-TAU area in the hippocampus (human TAU441; 1.2 mg, versus vehicle (ANOVA p<0.05, T-Test p=0.04) and untreated baseline (ANOVA p<0.05)): significantly reduced; percentage of relative AT180-TAU area in the hippocampus (human TAU441; 1.2 mg, versus vehicle (T-Test p=0.04)): reduced; percentage of relative TAU area in the Amygdala (AT180), versus vehicle (human TAU441; ANOVA p<0.05, T-Test p=0.0045): significantly reduced percentage of relative HT7-TAU area; TAU load and TAU positive cells in the amygdala and neuronal layer of the hippocampal CA1 region (human TAU441; AT180 and HT7 immunoreactivity): visibly reduced TAU load as well as TAU positive cells; percentage of relative HT7-TAU area in the Amygdala (human TAU441; versus untreated baseline (ANOVA p<0.01) and vehicle (ANOVA p<0.05, T-test p=0.0018)): significantly reduced percentage of relative HT7-TAU area; phosphatase activity of immunoprecipitated PP2A (general intracellular pool) (PP2A): had no effect; PP2A phosphatase activity, serine phosphopeptide as substrate (PP2A A-C dimer; 50 μM of each selenium compound): clear boost in phosphatase activity; inorganic phosphate released from phosphopeptide by PP2A (PP2A A-C dimer; 0.01-0.05 U PP2A, 500 μM phosphopeptide, 15 min at 37° C., 50 μM sodium selenate): more than doubled; phosphatase activity associated with immunoprecipitated Akt protein [2]: more than doubled; phosphatase activity of PP1 (rabbit PP1): did not affect the phosphatase activity of PP1
